This is an account of results in US8093229B2, “Alkynyl pyrrolo[2,3-d]pyrimidines and related analogs as HSP90-inhibitors” (Conforma Therapeutics Corporation, priority 2005, dated 2012).

What is called IC50 is the concentration needed to halve the response being measured. A low value points to greater potency in that assay.

Format in all cases: cell-based
For experiment [1], the system named is HER2/Neu protein. As to the kind of experiment: Her2 degradation assay. As to conditions: MCF7 cells, 16 h. The source says: [drawing 219] wherein R^3′ is not alkynyl, which were disclosed in U.S. patent application Ser. No. 10/945,851 and PCT Application US04/31248. The pyrrolopyrimidine compounds specified in the EXAMPLE sections of the above patent applications carry either no substituent or a substituted alkyl group. […] A simple alkyl or a substituted alkyl at C-5 (ie R^3=alkyl or substituted alkyl) can only bring two-fold additional activity. Conversely, if C-5 is alkyne substituted, the potency increases approximately 10-20 fold. (See, Series A: compounds A, B, C and D below).
Many cancers are associated with the over expression Her2 protein. It has been shown that compounds able to diminish Her2 levels show good promise as anti-cancer agents.
MCF7 breast carcinoma cells (ATCC) were grown in Dulbecco's modified Eagle's medium (DMEM) containing 10% fetal bovine serum (FBS) and 10 mM HEPES, and plated in 24 well plates (50% confluent). […] Samples were analyzed using a FACSCalibur™ flow cytometer (Becton Dickinson, San Jose, Calif.) equipped with Argon-ion laser that emits 15 mW of 488 nm light for excitation of the PE fluorochrome. […] A fluorescence histogram was generated and the mean fluorescence intensity (MFI) of each sample was determined using Cellquest software. […] Percent degradation of Her2 was calculated as follows: % Her2 degraded=[(MFI untreated cells−MFI treated cells)/MFI untreated cell]×100. […]

Experiment [2] has as its system BT474 breast tumor cell line. Nature of the experiment: MTS assay / secondary assay of killing tumor cells, BT474. As to conditions: Homo sapiens, BT-474. The procedure:
(§1) The difference in potency index between alkynes and non-alkynes measured by a secondary assay is also striking. The secondary assay measures the efficiency of killing tumor cells. […] EC50 is defined as the amount of compound added to effect a 50% reduction in viable cell number. Selected compounds were tested on cells of MCF7 and BT474 breast tumor cell lines. […] TABLE 2 summarized the result of the assay.
(§2) 3-(4,5-dimethylthiazol-2-yl)-5-(3-carboxymethoxyphenyl)-2-(4-sulfophenyl)-2H-tetrazolium assays measure the cytotoxicity of geldanamycin derivatives. MTS (3-(4,5-dimethylthiazol-2-yl) -5-(3-carboxymethoxyphenyl)-2-(4-sulfophenyl)-2H-tetrazolium) is a tetrazolium dye that is converted to a formazan product by dehydrogenase enzymes of metabolically active cells (Corey, A. et al. “Use of an aqueous soluble tetrazolium/formazan assay for cell growth assays in culture,” Cancer Commun. 1991, 3, 207-212). Cells were seeded in 96 well plates at 2000 cells/well and allowed to adhere overnight in Dulbecco's modified Eagle's medium supplemented with 10% fetal bovine serum. The final culture volume was 100 μl. Viable cell number was determined by using the Celltiter 96 AQueous Non-radioactive Cell Proliferation Assay (Promega, Madison Wis.). The MTS/PMS (phenazine methosulfate) solution was mixed at a ratio of 20:1, and 20 μL was added per well to 100 μl of culture medium. After 2-4 hours, the formation of the formazan product was measured at 490 nm absorbance using a multiwell plate spectrophotometer. Background was determined by measuring the Abs 490 nm of cell culture medium and MTS-PMS in the absence of cells and was subtracted from all values. Percent viable cells was calculated as follows: % viable cells=(Abs at 490 nm treated cells/Abs at 490 nm untreated cells)×100
For orientation: Formazan colour is commonly taken as a measure of viable cells.

For experiment [3], the system named is MCF7 breast carcinoma cells. As to the kind of experiment: MTS assay / secondary assay of killing tumor cells, MCF7. To be noted: for IC50: Homo sapiens, MCF7. The procedure:
as §1, §2
The effect of selected compounds of the invention on MCF7 breast carcinoma cells according to the MTS assay is summarized in table 3. IC50 was defined as the concentration of the compound which gave rise to 50% reduction in viable cell number.

Regarding `COc1c(C)cnc(Cn2cc(C#CCO)c3c(Cl)nc(N)nc32)c1C` [Example 1, 3-[2-amino-4-chloro-7-(4-methoxy-3,5-dimethyl-pyridin-2-ylmethyl)-7H-pyrrolo [2,3-d]pyrimidin-5-yl]-prop-2-yn-1-ol], the IC50 is 0.012 µM in experiment [1], 0.02 µM in experiment [2] and 0.13 µM in experiment [3].
As for `COc1c(C)cnc(Cn2cc(C#CCCO)c3c(Cl)nc(N)nc32)c1C` [Example 2, 4-[2-Amino-4-chloro-7-(4-methoxy-3,5-dimethyl-pyridin-2-ylmethyl)-7H-pyrrolo[2,3-d]pyrimidin-5-yl]-but-3-yn-1-ol], the IC50 in experiment [2] came to 0.006 µM; in experiment [3], 0.013 µM.
For `COc1c(C)cnc(Cn2cc(C#CCCCO)c3c(Cl)nc(N)nc32)c1C` [Example 3, 5-[2-Amino-4-chloro-7-(4-methoxy-3,5-dimethyl-pyridin-2-ylmethyl)-7H-pyrrolo[2,3-d]pyrimidin-5-yl]-pent-4-yn-1-ol], the IC50 in experiment [2] amounted to 0.008 µM; in experiment [3], 0.013 µM.
With `COc1c(C)cnc(Cn2cc(C#CCN(C(C)C)C(C)C)c3c(Cl)nc(N)nc32)c1C` [Example 5, 4-Chloro-5-(3-diisopropylamino-prop-1-ynyl)-7-(4-methoxy-3,5-dimethyl-pyridin-2-ylmethyl)-7H-pyrrolo[2,3-d]pyrimidin-2-ylamine], the IC50 amounted to 0.055 µM in experiment [1], 0.08 µM in experiment [2] and 0.1 µM in experiment [3].
`COc1c(C)cnc(Cn2cc(C#CCCCCO)c3c(Cl)nc(N)nc32)c1C` [Example 7, 6-[2-Amino-4-chloro-7-(4-methoxy-3,5-dimethyl-pyridin-2-ylmethyl)-7H-pyrrolo[2,3-d]pyrimidin-5-yl]-hex-5-yn-1-ol]: the values for the IC50 in experiment [2] and in experiment [3] were 0.02 µM and 0.2 µM, respectively.
With `CCN(CC)C(=O)CCC#Cc1cn(Cc2ncc(C)c(OC)c2C)c2nc(N)nc(Cl)c12` [Example 10], the results for the 50% inhibitory concentration (IC50) in experiment [2] and in experiment [3] were 0.05 µM and 0.7 µM, respectively.
As for `COc1c(C)cnc(Cn2cc(C#CCCC(=O)N3CCN(C)CC3)c3c(Cl)nc(N)nc32)c1C` [Example 11], the figures for the IC50 in experiment [2] and in experiment [3] were 0.02 µM and 0.1 µM, respectively.
For `COc1c(C)cnc(Cn2cc(C#CCCC(N)=O)c3c(Cl)nc(N)nc32)c1C` [Example 12, 5-[2-Amino-4-chloro-7-(4-methoxy-3,5-dimethyl-pyridin-2-ylmethyl)-7H-pyrrolo[2,3-d]pyrimidin-5-yl]-pent-4-ynoic acid amide], the results for the IC50 in experiment [2] and in experiment [3] were 0.02 µM and 0.03 µM, respectively.
Regarding `COc1c(C)cnc(Cn2cc(C#CCCCNC(=O)OC(C)(C)C)c3c(Cl)nc(N)nc32)c1C` [Example 15, {5-[2-Amino-4-chloro-7-(4-methoxy-3,5-dimethyl-pyridin-2-ylmethyl)-7H-pyrrolo [2,3-d]pyrimidin-5-yl]-pent-4-ynyl}-carbamic acid tert-butyl ester], the figures for the IC50 in experiment [2] and in experiment [3] were 1 µM and 0.06 µM, respectively.
Regarding `COc1c(C)cnc(Cn2cc(C#CCCCN)c3c(Cl)nc(N)nc32)c1C` [Example 16, 5-(5-Amino-pent-1-ynyl)-4-chloro-7-(4-methoxy-3,5-dimethyl-pyridin-2-ylmethyl)-7H-pyrrolo [2,3-d]pyrimidin-2-ylamine], the IC50 in experiment [2] is over 10 µM; in experiment [3] it was 0.09 µM.
As to `COc1c(C)cnc(Cn2cc(C#CCCCN3C(=O)c4ccccc4C3=O)c3c(Cl)nc(N)nc32)c1C` [Example 17], the IC50 in experiment [2] came out at 0.1 µM; in experiment [3], 0.01 µM.
With `COc1c(C)cnc(Cn2cc(C#CCCN3CCOCC3)c3c(Cl)nc(N)nc32)c1C` [Example 18], the IC50 stood at 1 µM in experiment [2] and 0.05 µM in experiment [3].
The like results for `COc1c(C)cnc(Cn2cc(C#CCCCN3CCOCC3)c3c(Cl)nc(N)nc32)c1C` [Example 19] were, in that order, 1 µM and 0.1 µM.
`COc1c(C)cnc(Cn2cc(C#CCCNC(C)(C)C)c3c(Cl)nc(N)nc32)c1C` [Example 20, 5-(4-tert-Butylamino-but-1-ynyl)-4-chloro-7-(4-methoxy-3,5-dimethyl-pyridin-2-ylmethyl) -7H-pyrrolo[2,3-d]pyrimidin-2-ylamine]: the figures for the IC50 in experiment [2] and in experiment [3] were 0.023 µM and 0.13 µM, respectively.
Turning to `COc1c(C)cnc(Cn2cc(C#CCCCNC(C)(C)C)c3c(Cl)nc(N)nc32)c1C` [Example 21, 5-(5-tert-Butylamino-pent-1-ynyl)-4-chloro-7-(4-methoxy-3,5-dimethyl-pyridin-2-ylmethyl) -7H-pyrrolo[2,3-d]pyrimidin-2-ylamine], the IC50 in experiment [2] turned out to be 0.03 µM; in experiment [3], 0.23 µM.
On to `COc1c(C)cnc(Cn2cc(C#CCOC(=O)CN(C)C)c3c(Cl)nc(N)nc32)c1C` [Example 22, Dimethylamino-acetic acid 3-[2-amino-4-chloro-7-(4-methoxy-3,5-dimethyl-pyridin-2-ylmethyl)-7H-pyrrolo[2,3-d]pyrimidin-5-yl]-prop-2-ynyl ester], for which the IC50 was found to be 0.02 µM in experiment [2] and 0.2 µM in experiment [3].
As to `COc1c(C)cnc(Cn2cc(C#CCCN3C(=O)c4ccccc4C3=O)c3c(Cl)nc(N)nc32)c1C` [H], the “potency index relative to 17-AAG” value in experiment [3] (cell line not specified, MCF7 and BT474 tested) is reported as “more potent than 17-AAG”.
